Results reported in US11696917B2, “Agent enhancing antitumor effect using pyrazolo[3,4-d]pyrimidine compound” (TAIHO PHARMACEUTICAL CO., LTD., priority 2017, dated 2023).
Where two headings read alike, the source gives them in different places.

How the values were obtained:
[1] = system: human stomach cancer cell line NCI-N87; experiment: Combination of Compound 1 and capecitabine (in vivo), subcutaneous tumor in nude mice; parameters: species or system nude mouse (BALB/cAJcl-nu/nu); settings: for T/C (%): Day 15
Procedure: A human stomach cancer cell line NCI-N87 was obtained from American Type Culture Collection (ATCC). The cell line was cultured at 37° C. in a 5% CO2 incubator using RPMI-1640 (containing 4.5 g/L glucose, 10 mM HEPES, and 1 mM sodium pyruvate) (Wako Pure Chemical Industries, Ltd.) medium containing 10% fetal bovine serum (FBS).
The NCI-N87 cells were resuspended at a concentration of 8×10^7 cells/mL in PBS.
The cell suspension was subcutaneously transplanted in an amount of 8×10^6 cells/0.1 mL to the right chest of a 6-week-old nude mouse (BALB/cAJcl-nu/nu, CLEA Japan, Inc.) using a 1 mL syringe for tuberculin and a 25 G injection needle.
Electronic calipers were used in tumor size measurement.

[2] = system: EGFR-overexpressing highly activated human epithelioid cancer cell line A431 cells; experiment: Cytostatic activity against EGFR-expressing cell line (A431), CellTiter-Glo; type: cell-based; settings: 3-day culture, read-out: A431 cell growth inhibitory activity IC50 value
Excerpt: (§1) HER2-overexpressing human stomach cancer cell line NCI-N87 cells were suspended in RPMI1640 medium (manufactured by Life Technologies Corp.) containing 10% fetal bovine serum. Meanwhile, EGFR-overexpressing highly activated human epithelioid cancer cell line A431 cells were suspended in DMEM, high glucose medium (manufactured by Life Technologies Corp.) containing 10% fetal bovine serum. Subsequently, each cell suspension was inoculated to each well of a 384-well flat-bottom microplate and cultured at 37° C. for 1 day in an incubator containing 5% carbon dioxide. The synthesis example compound was dissolved in DMSO, and the test compound was diluted into a concentration of 500 times the final concentration using DMSO. The solution of the test compound in DMSO was diluted with the medium used in the suspension of each cell line, and this solution was added at a final concentration of DMSO of 0.2% to each well of the cell culture plate, followed by further culture at 37° C. for 3 days in an incubator containing 5% carbon dioxide.
(§2) Rate of growth inhibition (%)=(C−T)/(C)×100 T: Luminescence intensity of a well supplemented with the test compound C: Luminescence intensity of a well not supplemented with the test compound

[3] = system: HER2-overexpressing human breast cancer cell line SK-BR-3 cells; experiment: Cytostatic activity against HER2-expressing cell line (SK-BR-3), CellTiter-Glo; type: cell-based; settings: 3-day culture, read-out: SK-BR-3 cell growth inhibitory activity IC50 value
Procedure: as §2
as §1, with “breast” for “stomach”, “SK-BR-3” for “NCI-N87”, “McCoy's 5a” for “RPMI1640”, “The” for “Meanwhile, EGFR-overexpressing highly activated human epithelioid cancer cell line A431 cells were suspended in DMEM, high glucose medium (manufactured by Life Technologies Corp.) containing 10% fetal bovine serum. Subsequently, each”, “into” for “into a concentration of”, “times as high concentration as” for “times”

[4] = system: HER2-overexpressing human stomach cancer cell line NCI-N87 cells; experiment: Cytostatic activity against HER2-expressing cell line (NCI-N87), CellTiter-Glo; type: cell-based; settings: 3-day culture, read-out: NCI-N87 cell growth inhibitory activity IC50 value
Excerpt: as §1

[5] = biological target: purified recombinant human HER2 protein (Homo sapiens (Human), UniProt P04626); experiment: Measurement of inhibitory effect on HER2-phosphorylating activity (in vitro); type: biochemical; settings: ATP 6 μM, 25° C., 40 minutes
purified recombinant human HER2 protein, sequence (P04626 23-1255): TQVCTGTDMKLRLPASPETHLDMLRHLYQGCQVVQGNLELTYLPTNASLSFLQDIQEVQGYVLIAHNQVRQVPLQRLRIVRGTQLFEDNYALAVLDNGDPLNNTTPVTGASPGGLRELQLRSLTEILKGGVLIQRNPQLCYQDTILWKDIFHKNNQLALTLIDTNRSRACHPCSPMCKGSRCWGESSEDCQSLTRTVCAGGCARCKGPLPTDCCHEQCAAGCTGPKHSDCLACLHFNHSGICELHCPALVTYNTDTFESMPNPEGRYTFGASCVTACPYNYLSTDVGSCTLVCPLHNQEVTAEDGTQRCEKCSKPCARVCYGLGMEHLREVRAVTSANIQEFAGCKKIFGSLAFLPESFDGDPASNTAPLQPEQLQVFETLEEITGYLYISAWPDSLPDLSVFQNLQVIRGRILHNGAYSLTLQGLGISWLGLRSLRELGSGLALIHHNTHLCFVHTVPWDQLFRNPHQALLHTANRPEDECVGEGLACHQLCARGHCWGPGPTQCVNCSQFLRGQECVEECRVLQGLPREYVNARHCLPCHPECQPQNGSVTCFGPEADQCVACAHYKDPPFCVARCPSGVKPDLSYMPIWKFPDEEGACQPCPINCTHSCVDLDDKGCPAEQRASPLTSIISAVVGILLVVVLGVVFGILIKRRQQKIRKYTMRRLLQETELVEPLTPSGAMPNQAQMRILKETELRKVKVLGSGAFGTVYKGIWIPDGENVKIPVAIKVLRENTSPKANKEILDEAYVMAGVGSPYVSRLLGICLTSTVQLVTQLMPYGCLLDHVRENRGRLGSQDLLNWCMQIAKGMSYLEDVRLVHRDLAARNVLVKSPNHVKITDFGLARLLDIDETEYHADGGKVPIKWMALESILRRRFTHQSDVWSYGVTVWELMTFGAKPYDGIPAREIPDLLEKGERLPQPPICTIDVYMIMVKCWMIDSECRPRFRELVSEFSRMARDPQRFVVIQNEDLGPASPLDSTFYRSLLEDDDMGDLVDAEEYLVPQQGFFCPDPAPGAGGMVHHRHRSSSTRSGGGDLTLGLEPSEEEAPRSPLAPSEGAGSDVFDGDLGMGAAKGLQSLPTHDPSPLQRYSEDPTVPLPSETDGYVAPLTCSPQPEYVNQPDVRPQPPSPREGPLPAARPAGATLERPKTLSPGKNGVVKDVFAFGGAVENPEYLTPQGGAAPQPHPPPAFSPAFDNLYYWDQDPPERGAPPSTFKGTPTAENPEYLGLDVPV
Excerpt: The purified recombinant human HER2 protein used in the test was purchased from Carna Biosciences, Inc.
For the inhibitory activity measurement of each compound, the synthesis example compound was first serially diluted with dimethyl sulfoxide (DMSO).

[6] = Capecitabine 359 mg/kg/day p.o. Days 1-14
[7] = Capecitabine 809 mg/kg/day p.o. Days 1-14

Compound | IC50 [2] [nM] | IC50 [3] [nM] | IC50 [4] [nM] | IC50 [5] [nM] | also measured
CCCCCOC(=O)Nc1nc(=O)n([C@@H]2O[C@H](C)[C@@H](O)[C@H]2O)cc1F [Capecitabine, capecitabine] | – | – | – | – | BWC (%) Day 15 Mean [1, 6]: 7.51%; RTV Day 15 Mean ± SD [1, 6]: 1.26 ± 0.21; T/C (%) [1, 6]: 30.4%; BWC (%) Day 15 Mean [1, 7]: −5.30%; RTV Day 15 Mean ± SD [1, 7]: 1.12 ± 0.18; T/C (%) [1, 7]: 27.1%; RTV on Day 15 compared with the control group (in words) ([1]; Dunnett's test): significantly lower
C=CC(=O)N1CCC[C@@H](n2nc(C(=O)Nc3cc(Br)c(CC(=O)N(C)C)cc3C)c3c(N)ncnc32)C1 [compound 1] | 2320 | 20 | 19 | 10 | –
C=CC(=O)N1CCC[C@@H](n2nc(C(=O)Nc3cc(C)c(CC(=O)N(C)C)cc3Cl)c3c(N)ncnc32)C1 [compound 2] | 2670 | 30 | 45 | 8.3 | –
C=CC(=O)N1CCC[C@@H](n2nc(C(=O)Nc3ccc(CC(=O)N(C)C)c(C)c3Cl)c3c(N)ncnc32)C1 [compound 3] | 3370 | 9 | 27 | 7.1 | –
C=CC(=O)N1CCC[C@@H](n2nc(C(=O)Nc3ccc(CC(=O)N(C)C)cc3C)c3c(N)ncnc32)C1 [compound 4] | 2610 | 16 | 12 | 12 | –
C=CC(=O)N1CCC[C@@H](n2nc(C(=O)Nc3ccc(CC(=O)N(C)C)c4ccccc34)c3c(N)ncnc32)C1 [compound 5] | 1230 | 11 | 6 | – | –
C=CC(=O)N1CCC[C@@H](n2nc(C(=O)Nc3ccc(CC(=O)N(C)C)cc3Cl)c3c(N)ncnc32)C1 [compound 6] | 1290 | 14 | 7 | 4 | –
C=CC(=O)N1CCC[C@@H](n2nc(C(=O)Nc3ccc(CC(=O)N(C)C)cc3OC)c3c(N)ncnc32)C1 [compound 7] | 2800 | 31 | 12 | 7.1 | –
C=CC(=O)N1CCC[C@@H](n2nc(C(=O)Nc3cc(F)c(CC(=O)N(C)C)cc3C)c3c(N)ncnc32)C1 [compound 10] | 1410 | 21 | 6 | 13 | –
C=CC(=O)N1CCC[C@@H](n2nc(C(=O)Nc3ccc(CC(=O)N(C)C)c(Cl)c3OC)c3c(N)ncnc32)C1 [compound 11] | 961 | 12 | 4 | 7.5 | –
C=CC(=O)N1CCC[C@@H](n2nc(C(=O)Nc3ccc(CC(=O)N(C)C)c(C)c3C)c3c(N)ncnc32)C1 [compound 13, (R)-1-(1-acryloylpiperidin-3-yl)-4-amino-N-(4-(2-(dimethylamino)-2-oxoethyl)-2,3-dimethylphenyl)-1H-pyrazolo[3,4-d]pyrimidine-3-carboxamide] | – | – | – | – | IC50 ([2]; Homo sapiens, A-431, 72 h): 1210 nM; IC50 ([3]; Homo sapiens, SK-BR-3, 72 h): 9 nM; IC50 ([4]; Homo sapiens, NCI-N87, 72 h): 5 nM
C=CC(=O)N1CCC[C@@H](n2nc(C(=O)Nc3ccc(CC(=O)N(C)C)c(F)c3OC)c3c(N)ncnc32)C1 [compound 14] | 486 | 10 | 4 | 4.6 | –
C=CC(=O)N1CCC[C@@H](n2nc(C(=O)Nc3ccc(CC(=O)N(C)C)cc3OC(F)F)c3c(N)ncnc32)C1 [compound 15] | 2270 | 30 | 20 | 8.6 | –
C=CC(=O)N1CCC[C@@H](n2nc(C(=O)Nc3ccc(CC(=O)N(C)C)cc3OCF)c3c(N)ncnc32)C1 [compound 16] | 3460 | 40 | 27 | 10 | –
C=CC(=O)N1CCC[C@@H](n2nc(C(=O)Nc3ccc(CC(=O)N(C)C)cc3Br)c3c(N)ncnc32)C1 [compound 17] | 910 | 13 | 5 | 5.9 | –
C=CC(=O)N1CCC[C@@H](n2nc(C(=O)Nc3cc(Cl)c(CC(=O)N(C)C)cc3C)c3c(N)ncnc32)C1 [compound 19] | 1260 | 24 | 12 | 10 | –
C=CC(=O)N1CCC[C@@H](n2nc(C(=O)Nc3ccc(OC(=O)N(C)C)cc3C)c3c(N)ncnc32)C1 [compound 26] | 984 | 8 | 5 | 7 | –
C=CC(=O)N1CCC[C@@H](n2nc(C(=O)Nc3ccc(OC(=O)N(C)C)cc3Cl)c3c(N)ncnc32)C1 [compound 27] | 1510 | 9 | 5 | – | –
C=CC(=O)N1CCC[C@@H](n2nc(C(=O)Nc3ccc(OC(=O)N(C)C)c(Cl)c3)c3c(N)ncnc32)C1 [compound 29] | 2220 | 44 | 46 | 6.5 | –
C=CC(=O)N1CCC[C@@H](n2nc(C(=O)Nc3ccc(OC(=O)N(C)C)c(C)c3)c3c(N)ncnc32)C1 [compound 30] | 2350 | 39 | 23 | – | –
C=CC(=O)N1CCC[C@@H](n2nc(C(=O)Nc3ccc(OC(=O)N(C)C)c(C)c3C)c3c(N)ncnc32)C1 [compound 32] | 1920 | 14 | 7 | – | –
C=CC(=O)N1CCC[C@@H](n2nc(C(=O)Nc3ccc(OC(=O)N(C)C)cc3OC)c3c(N)ncnc32)C1 [compound 36] | – | 12 | – | – | –
C=CC(=O)N1CCC[C@@H](n2nc(C(=O)Nc3cc(C)c(OC(=O)N(C)C)cc3C)c3c(N)ncnc32)C1 [compound 38] | 1040 | 12 | 8 | – | –
C=CC(=O)N1CCC[C@@H](n2nc(C(=O)Nc3ccc(CC(=O)N(C)C)c4c3OCO4)c3c(N)ncnc32)C1 [compound 53] | – | 18 | – | 14 | –
C=CC(=O)N1CC[C@@H](n2nc(C(=O)Nc3ccc(CC(=O)N(C)C)c(F)c3OC)c3c(N)ncnc32)C1 [compound 57] | 3390 | – | 44 | 31 | –
C=CC(=O)N1CC(F)C[C@@H](n2nc(C(=O)Nc3ccc(CC(=O)N(C)C)cc3Cl)c3c(N)ncnc32)C1 (stereo partly drawn) [compound 76, 1-((3R)-1-acryloyl-5-fluoropiperidin-3-yl)-4-amino-N-(2-chloro-4-(2-(dimethylamino)-2-oxoethyl)phenyl)-1H-pyrazolo[3,4-d]pyrimidine-3-carboxamide] | – | – | – | – | IC50 ([2]; Homo sapiens, A-431, 72 h): 2070 nM; IC50 ([3]; Homo sapiens, SK-BR-3, 72 h): 8 nM
C=CC(=O)N1CC(F)C[C@@H](n2nc(C(=O)Nc3ccc(CC(=O)N(C)C)c(C)c3C)c3c(N)ncnc32)C1 (stereo partly drawn) [compound 77, 1-((3R)-1-acryloyl-5-fluoropiperidin-3-yl)-4-amino-N-(4-(2-(dimethylamino)-2-oxoethyl)-2,3-dimethylphenyl)-1H-pyrazolo[3,4-d]pyrimidine-3-carboxamide] | – | – | – | – | IC50 ([2]; Homo sapiens, A-431, 72 h): 2460 nM; IC50 ([3]; Homo sapiens, SK-BR-3, 72 h): 12 nM
